From ChEMBL document CHEMBL1201862, “PubChem BioAssay data set” (2004)
Calls of active or inactive are those of the source.

What was measured:
[1] = target: T1, Sentrin-specific protease 6 (Homo sapiens, UniProt Q9GZR1); type: functional;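 note: Luminescence-based dose-response confirmatory assay of SENP6 inhibition, following up an ultra-high-throughput screen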
T1 sequence (Q9GZR1 whole entry): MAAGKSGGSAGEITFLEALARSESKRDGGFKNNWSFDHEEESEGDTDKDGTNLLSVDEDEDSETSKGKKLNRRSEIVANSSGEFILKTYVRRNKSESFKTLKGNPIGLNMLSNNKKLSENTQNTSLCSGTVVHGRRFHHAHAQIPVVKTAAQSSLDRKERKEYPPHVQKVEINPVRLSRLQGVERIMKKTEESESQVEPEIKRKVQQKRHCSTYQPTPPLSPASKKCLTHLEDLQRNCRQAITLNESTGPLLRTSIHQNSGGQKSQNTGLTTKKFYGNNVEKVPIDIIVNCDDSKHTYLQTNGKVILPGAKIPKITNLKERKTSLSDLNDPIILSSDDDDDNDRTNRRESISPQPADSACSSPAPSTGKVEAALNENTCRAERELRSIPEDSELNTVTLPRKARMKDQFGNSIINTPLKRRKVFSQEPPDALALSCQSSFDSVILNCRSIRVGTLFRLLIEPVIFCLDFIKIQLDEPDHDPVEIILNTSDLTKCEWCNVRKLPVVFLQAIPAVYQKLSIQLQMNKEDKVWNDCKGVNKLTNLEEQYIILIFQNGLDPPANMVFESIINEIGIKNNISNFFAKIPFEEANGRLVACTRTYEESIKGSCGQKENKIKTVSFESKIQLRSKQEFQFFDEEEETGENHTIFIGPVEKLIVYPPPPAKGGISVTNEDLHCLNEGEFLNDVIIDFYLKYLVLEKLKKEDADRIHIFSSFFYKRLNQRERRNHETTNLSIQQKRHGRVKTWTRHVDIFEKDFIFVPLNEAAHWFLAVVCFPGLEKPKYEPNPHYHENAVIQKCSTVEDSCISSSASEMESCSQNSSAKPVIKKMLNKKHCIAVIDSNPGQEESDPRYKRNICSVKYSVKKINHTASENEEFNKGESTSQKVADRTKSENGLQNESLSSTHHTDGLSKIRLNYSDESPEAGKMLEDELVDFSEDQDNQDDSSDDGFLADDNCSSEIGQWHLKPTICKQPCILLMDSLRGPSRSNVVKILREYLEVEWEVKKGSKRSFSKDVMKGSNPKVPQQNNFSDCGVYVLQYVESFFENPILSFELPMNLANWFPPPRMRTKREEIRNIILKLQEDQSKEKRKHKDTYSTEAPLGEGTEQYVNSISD

[2] = target: T2, Sentrin-specific protease 8 (Homo sapiens, UniProt Q96LD8); type: functional;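 note: luminescence read-out of SENP8 inhibition, dose-response confirmation following an ultra-high-throughput screen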
T2 sequence (Q96LD8 whole entry): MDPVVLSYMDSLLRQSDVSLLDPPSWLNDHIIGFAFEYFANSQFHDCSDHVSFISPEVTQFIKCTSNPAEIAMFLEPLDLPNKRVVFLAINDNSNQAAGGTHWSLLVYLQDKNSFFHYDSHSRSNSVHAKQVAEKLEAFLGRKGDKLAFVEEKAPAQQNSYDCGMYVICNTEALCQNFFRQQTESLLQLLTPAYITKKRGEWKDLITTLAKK

[3] = target: T3, Caspase-3 (Homo sapiens, UniProt P42574); type: functional;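 note: Dose-response selectivity test against caspase-3 for candidate inhibitors of sentrin-specific proteases (SENPs)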
T3 sequence (P42574 whole entry): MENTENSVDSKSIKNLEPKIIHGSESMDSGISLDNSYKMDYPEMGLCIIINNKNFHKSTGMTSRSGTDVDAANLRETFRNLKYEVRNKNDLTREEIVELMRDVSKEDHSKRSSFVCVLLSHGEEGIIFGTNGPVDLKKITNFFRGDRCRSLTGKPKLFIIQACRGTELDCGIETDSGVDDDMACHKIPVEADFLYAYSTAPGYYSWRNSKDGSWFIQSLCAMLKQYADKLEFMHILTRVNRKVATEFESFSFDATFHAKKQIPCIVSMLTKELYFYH

[4] = target: T4, Sentrin-specific protease 7 (Homo sapiens, UniProt Q9BQF6); type: functional;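 note: Luminescence-based dose-response confirmation of ultra-high-throughput screening hits, measuring inhibition of SENP7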
T4 sequence (Q9BQF6 whole entry): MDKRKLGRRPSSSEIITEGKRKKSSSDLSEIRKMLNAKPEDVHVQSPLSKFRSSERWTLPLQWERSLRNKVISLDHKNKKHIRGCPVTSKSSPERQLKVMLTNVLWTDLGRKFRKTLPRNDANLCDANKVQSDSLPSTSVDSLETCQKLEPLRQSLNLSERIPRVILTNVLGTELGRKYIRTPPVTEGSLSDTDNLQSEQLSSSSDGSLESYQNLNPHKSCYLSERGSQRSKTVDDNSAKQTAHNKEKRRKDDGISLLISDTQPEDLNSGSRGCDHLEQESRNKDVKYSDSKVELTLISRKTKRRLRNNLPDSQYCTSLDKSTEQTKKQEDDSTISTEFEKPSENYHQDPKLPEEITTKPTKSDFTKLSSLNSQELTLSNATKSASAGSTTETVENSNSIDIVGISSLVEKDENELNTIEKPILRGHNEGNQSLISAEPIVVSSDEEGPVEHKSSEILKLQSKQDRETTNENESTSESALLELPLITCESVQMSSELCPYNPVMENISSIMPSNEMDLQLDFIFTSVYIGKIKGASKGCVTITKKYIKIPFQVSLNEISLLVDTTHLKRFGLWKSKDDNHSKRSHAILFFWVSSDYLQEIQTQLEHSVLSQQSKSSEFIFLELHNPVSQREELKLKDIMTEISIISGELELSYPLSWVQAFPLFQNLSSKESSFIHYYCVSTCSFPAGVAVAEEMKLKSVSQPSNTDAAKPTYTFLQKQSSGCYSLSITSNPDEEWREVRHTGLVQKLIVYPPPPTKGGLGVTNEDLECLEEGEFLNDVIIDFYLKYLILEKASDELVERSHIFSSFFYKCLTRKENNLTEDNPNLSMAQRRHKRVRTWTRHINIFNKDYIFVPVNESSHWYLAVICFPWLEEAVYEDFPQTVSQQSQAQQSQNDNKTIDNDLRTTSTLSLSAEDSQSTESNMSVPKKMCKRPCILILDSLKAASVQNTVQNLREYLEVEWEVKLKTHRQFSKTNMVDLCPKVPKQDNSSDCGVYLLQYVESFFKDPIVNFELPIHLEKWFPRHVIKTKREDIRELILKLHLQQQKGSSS

[5] = target: T5, Hepatocyte nuclear factor 4-alpha (Homo sapiens, UniProt P41235); type: functional, cell-based;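 note: biochemical luminescence-based dose-response counterscreen measuring inhibition of HNF4 dimerization, run alongside a screen for blockers of ABHD5–perilipin-5 interaction; split luciferase complementation of HNF4 fusion proteins in cell lysate measuring dimerization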
T5 sequence (P41235 whole entry): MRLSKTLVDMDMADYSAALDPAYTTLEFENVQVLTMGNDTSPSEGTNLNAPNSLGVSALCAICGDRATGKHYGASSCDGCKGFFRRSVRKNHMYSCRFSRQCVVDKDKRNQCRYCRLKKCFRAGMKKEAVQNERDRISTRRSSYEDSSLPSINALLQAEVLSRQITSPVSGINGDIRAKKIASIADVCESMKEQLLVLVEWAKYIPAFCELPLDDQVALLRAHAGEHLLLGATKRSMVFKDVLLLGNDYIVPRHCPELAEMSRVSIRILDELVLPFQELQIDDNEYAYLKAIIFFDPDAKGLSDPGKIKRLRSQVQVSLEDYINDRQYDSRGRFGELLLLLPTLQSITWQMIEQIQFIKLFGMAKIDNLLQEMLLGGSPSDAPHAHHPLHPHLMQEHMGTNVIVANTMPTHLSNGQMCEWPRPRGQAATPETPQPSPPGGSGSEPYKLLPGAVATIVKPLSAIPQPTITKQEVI

[6] = microbe, parasite or virus in culture; type: functional; settings: Mycobacterium tuberculosis
[7] = target: Heat shock protein HSP 90-alpha (Homo sapiens, UniProt P07900); type: functional, organism-based
[8] = target: T6, Heat shock factor protein 1 (Mus musculus, UniProt P38532); assay: inhibition of MG132-induced HSE-luciferase signal, confirmation, cell-based, NIH3T3, luminescence, dose retest (AID 2382); type: functional;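 note: NIH3T3 fibroblasts with HSF1-driven luciferase reporter stressed by proteasome inhibitor MG132; luminescence from HSF1-driven luciferase expression after 8 hours of MG132 stress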
T6 sequence (P38532 whole entry): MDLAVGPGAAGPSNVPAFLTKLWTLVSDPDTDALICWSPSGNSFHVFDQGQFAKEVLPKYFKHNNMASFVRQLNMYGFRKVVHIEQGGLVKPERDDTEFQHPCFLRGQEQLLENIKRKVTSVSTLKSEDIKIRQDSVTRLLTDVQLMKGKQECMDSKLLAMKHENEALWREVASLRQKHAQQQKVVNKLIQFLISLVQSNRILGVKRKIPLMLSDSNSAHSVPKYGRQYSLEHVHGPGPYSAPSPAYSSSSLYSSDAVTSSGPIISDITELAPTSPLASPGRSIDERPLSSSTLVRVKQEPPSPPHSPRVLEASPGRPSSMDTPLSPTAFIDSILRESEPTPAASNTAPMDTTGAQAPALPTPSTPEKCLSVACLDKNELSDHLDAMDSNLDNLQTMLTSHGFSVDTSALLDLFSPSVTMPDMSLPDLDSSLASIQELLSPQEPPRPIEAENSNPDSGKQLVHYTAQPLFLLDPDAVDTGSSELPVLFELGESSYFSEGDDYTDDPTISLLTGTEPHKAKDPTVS

[9] = Luminescence Cell-Based Dose Confirmation HTS to Identify Inhibitors of Platelet Dense Granule Release. [Related pubchem assays: 1663 (Primary HTS), 1678 (Summary of Project)]; type: functional
[10] = target: Luciferin 4-monooxygenase (Photinus pyralis, UniProt P08659); assay: firefly luciferase enzyme inhibitors, dose response, biochemical, luminescence (AID 1891)
Luciferin 4-monooxygenase, sequence (P08659 whole entry): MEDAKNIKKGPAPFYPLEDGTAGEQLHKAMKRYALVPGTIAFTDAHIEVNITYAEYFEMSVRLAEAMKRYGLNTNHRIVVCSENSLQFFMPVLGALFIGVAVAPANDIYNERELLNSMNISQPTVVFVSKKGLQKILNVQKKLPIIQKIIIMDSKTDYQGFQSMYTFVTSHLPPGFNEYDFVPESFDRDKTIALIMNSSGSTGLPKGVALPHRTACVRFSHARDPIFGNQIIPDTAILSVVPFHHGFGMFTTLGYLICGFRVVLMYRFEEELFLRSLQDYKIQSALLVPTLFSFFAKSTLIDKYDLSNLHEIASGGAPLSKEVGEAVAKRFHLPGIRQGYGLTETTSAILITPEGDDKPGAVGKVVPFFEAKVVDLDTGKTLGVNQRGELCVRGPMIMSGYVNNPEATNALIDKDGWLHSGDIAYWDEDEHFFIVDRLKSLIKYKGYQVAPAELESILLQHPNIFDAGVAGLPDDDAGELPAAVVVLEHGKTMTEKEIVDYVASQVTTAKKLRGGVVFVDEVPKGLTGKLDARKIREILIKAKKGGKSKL

[11] = tested on: HEK293; assay: inhibitors of LMP1-driven NF-kB reporter, dose response, cell-based, HEK293, luciferase, cherry-pick (AID 588343); type: functional; settings: Homo sapiens
[12] = target: T7, Long-chain-fatty-acid--AMP ligase FadD28 (Mycobacterium tuberculosis, UniProt P9WQ59); assay: Fluorescence polarization aasay to screen for inhibitors that compete for the binding of FadD28 to a bisubstrate Measured in Biochemical System Using Plate Reader - 2147-01_Inhibitor_Dose_CherryPick_Activity.; type: functional, Mycobacterium tuberculosis H37Rv
T7 sequence (P9WQ59 whole entry): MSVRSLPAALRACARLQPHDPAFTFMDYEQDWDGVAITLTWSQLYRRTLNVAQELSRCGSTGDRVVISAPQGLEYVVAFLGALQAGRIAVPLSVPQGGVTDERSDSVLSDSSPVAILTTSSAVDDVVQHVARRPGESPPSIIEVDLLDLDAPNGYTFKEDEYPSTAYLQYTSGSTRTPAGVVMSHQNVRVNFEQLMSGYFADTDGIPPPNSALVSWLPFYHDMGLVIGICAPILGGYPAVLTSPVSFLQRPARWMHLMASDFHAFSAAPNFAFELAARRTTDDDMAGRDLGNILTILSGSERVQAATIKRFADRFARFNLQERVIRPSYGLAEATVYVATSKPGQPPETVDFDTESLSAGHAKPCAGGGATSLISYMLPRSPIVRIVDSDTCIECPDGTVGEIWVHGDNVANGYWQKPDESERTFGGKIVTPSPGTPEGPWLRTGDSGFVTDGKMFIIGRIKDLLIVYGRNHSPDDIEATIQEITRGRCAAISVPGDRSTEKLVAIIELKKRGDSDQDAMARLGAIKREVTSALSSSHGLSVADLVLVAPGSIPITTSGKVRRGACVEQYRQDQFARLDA

Compound	IC50 [1]	IC50 [2]	IC50 [3]	IC50 [4]	IC50 [5]	also measured
CCOc1cccc(-c2nc3cc(C)ccc3o2)c1	15.6 µM (active)	39.6 µM (active)	18.2 µM (active)	7.7 µM (active)		
Cc1nc(-c2ccccc2)sc1C(=O)/C=C/c1ccccc1					3.43 µM (active)	CC50 [6]: 36.9 µM (active)
Cc1ccc(S(=O)(=O)NC(=NNC(=O)c2cccc(Cl)c2)c2ccccc2)cc1	13.6 µM (active)	19.4 µM (active)	10.3 µM (active)	5.83 µM (active)		
CCC1(C)N=C(c2ccc3c(c2)OCO3)CC(c2ccccc2O)N1 (stereo not drawn)					1.87 µM (active)	
Cc1ccc(C(C[N+](=O)[O-])c2c(N)n(C)c(=O)n(C)c2=O)cc1 (stereo not drawn)						AC50 [7]: 2.5 µM (active)
COc1cc2c(cc1OC)-c1cc(Nc3ccc4c(c3)OCCO4)nc(=O)n1CC2						EC50 [8]: 2.04 µM (active); EC50 [9]: 4.63 µM (active); EC50 [10]: 17.4 µM (active); AC50 [11]: 27.3 µM (active)
CCOC(=O)CN1C(=O)S/C(=C\c2ccc(-c3cccc(C(=O)O)c3C)o2)C1=O	18 µM (active)	16.2 µM (active)	45.4 µM (active)	6.97 µM (active)		
COc1ccccc1C=CC(=O)C=Cc1ccccc1OC					6.46 µM (active)	
Oc1ccc(O)c(C=NNC(=S)NC2CC3CC2C2C=CCC32)c1 (stereo not drawn)						AC50 [12]: > 100 µM (inactive)
Cc1ccc(/C(=N/Nc2nc3ccccc3s2)C2=C(O)c3ccccc3C2=O)cc1						AC50 [12]: 41.1 µM (active)
